# Reference: US8993606B2, “Oral formulations for treating metal overload” (FerroKin BioSciences, Inc., priority 2011, dated 2015)
# Counter-ions that a name gives are not always drawn.
# Key:
# Assay type in all cases: physicochemical
# [1] = Vapor diffusion experiments of amorphous magnesium salt, XRPD result; details: antisolvent Hexanes
# Source text: The results of vapor diffusion experiments of amorphous (S)-3′-(OH)-DADFT-PE magnesium salt are given below in Table 38, wherein LC stands for low crystallinity.
# [2] = Vapor stress experiments of amorphous magnesium salt, XRPD result; parameters: key: IS stands for insufficient solid
# Source text: The results of vapor stress experiments of amorphous (S)-3′-(OH)-DADFT-PE magnesium salt are given below in Table 37, wherein LC stands for low crystallinity and IS stands for insufficient solid.
# [3] = Dynamic vapor sorption/desorption (DVS)
# Source text: As described above, Form D was obtained via DVS experimentation with Form B, and Form B was generated with crystallization experiments using solvent mixtures containing methanol or water (e.g., MeOH/acetone, IPA/MeOH, heptane/MeOH, water (solvent grinding), water (antisolvent precipitation), or water (slurry at ambient)). DVS experimentation with Form B is as follows: Dynamic vapor sorption/desorption (DVS) data were collected on a VTI SGA-100 Vapor Sorption Analyzer. Sorption and desorption data were collected over a range of 5% to 95% relative humidity (RH) at 10% RH intervals under a nitrogen purge. Samples were not dried prior to analysis. Equilibrium criteria used for analysis were less than 0.0100% weight change in 5 minutes, with a maximum equilibration time of 3 hours if the weight criterion was not met. Data were not corrected for the initial moisture content of the sample. Sodium chloride and polyvinylpyrrolidine were used as calibration standards.
# [4] = Aqueous solubility of salts; details: tromethamine salt; read-out: aqueous solubility
# Source text: Typically, oral formulations described herein facilitate solubilizing an active ingredient (e.g., a desazadesferrithiocin analog, salt or polymorph) at a desired amount or rate suitable for the treatment of metal overload. As used herein, the term “solubility” is generally intended to be synonymous with the term “aqueous solubility,” and refers to the ability, and the degree of the ability, of a compound to dissolve in water or an aqueous solvent or buffer, as might be found under physiological conditions. Aqueous solubility is, in and of itself, a useful quantitative measure, but it has additional utility as a correlate and predictor, with some limitations which will be clear to those of skill in the art, of oral bioavailability. Typically, a soluble compound is generally desirable, and the more soluble, the better. In liquid formulations, solubility is typically reported in mg/mL, but other measures, such as g/g, may be used. Solubilities typically deemed acceptable may range from 1 mg/mL into the hundreds or thousands of mg/mL.
# Solubility may be measured under varying conditions. For example, it may be measured under conditions similar to those found in the body, such as at gastric pH or at physiologic or near-physiologic pH. “Gastric pH” as used herein means about pH 1. […]
# [5] = Relative humidity stress (deliquescence, hygroscopicity); details: ~75% RH stress
# [6] = Solvent grinding experiments of magnesium salt form A, XRPD result; details: solvent printed as — (none)
# Source text: The results of solvent grinding experiments of (S)-3′-(OH)-DADFT-PE magnesium salt form A are given below in Table 39, wherein LC stands for low crystallinity.
# [7] = Slurry experiments of magnesium salt form A, XRPD result; parameters: key: IS stands for insufficient solid
# Source text: The results of slurry experiments of (S)-3′-(OH)-DADFT-PE magnesium salt form A are given below in Table 36, wherein d stands for day, and IS stands for insufficient solid.
compound,measurement,setting,value
COCCOCCOCCOc1cccc(C2=N[C@@](C)(C(=O)[O-])CS2)c1O.COCCOCCOCCOc1cccc(C2=N[C@@](C)(C(=O)[O-])CS2)c1O.[Mg+2] [listing 1 of 2 here],XRPD Result,[1]; solvent Acetone,A (LC)
same,XRPD Result,[1]; solvent DCM,A (LC)
same,XRPD Result,[1]; solvent EtOAc,A (LC)
same,XRPD Result,[1]; solvent MEK,Amorphous
same,XRPD Result,[1]; solvent THF,A (LC)
same,XRPD Result,[1]; solvent Toluene,A (LC)
same,XRPD Result,"[2]; solvent 1,4-Dioxane",IS
same,XRPD Result,[2]; solvent Acetone,A (LC)
same,XRPD Result,[2]; solvent DCM,IS
same,XRPD Result,[2]; solvent EtOAc,IS
same,XRPD Result,[2]; solvent MEK,IS
"COCCOCCOCCOc1cccc(C2=N[C@@](C)(C(=O)O)CS2)c1O [Form B, (S)-3′-(OH)-DADFT-PE magnesium salt form B]",hygroscopicity (DVS data),[3],hygroscopic
same,weight loss upon desorption,[3],26.6%
same,additional weight gain during sorption step,"[3]; above 65% RH, without reaching equilibrium weight",21.2%
same,weight loss upon equilibrium,[3]; at 5% RH,10.8%
same,weight gain during sorption step,[3]; from 5% to 65% RH,5.7%
"COCCOCCOCCOc1ccc(C2=N[C@@](C)(C(=O)O)CS2)c(O)c1 [Compound 2, Tromethamine salt of (S)-4′-(OH)-DADFT-PE]",weight gained,[3]; above ~65% RH,~50.3 wt %
same,water uptake,[3]; below ~65% RH,~1.5 wt %
same,solubility,[4],> 124 mg/mL
same,deliquescence upon RH stress,[5],no apparent deliquescence
COCCOCCOCCOc1cccc(C2=N[C@@](C)(C(=O)[O-])CS2)c1O.COCCOCCOCCOc1cccc(C2=N[C@@](C)(C(=O)[O-])CS2)c1O.[Mg+2] [listing 2 of 2 here],XRPD Result,[6],A (LC)
same,XRPD Result,"[7]; solvent ACN/THF (1:1), 60° C./4 d",A + peaks
same,XRPD Result,"[7]; solvent EtOH/H2O (1:1), Ambient",IS
same,XRPD Result,"[7]; solvent EtOH/H2O (1:9), Ambient",IS
same,XRPD Result,"[7]; solvent Heptane/DCM (2:8), Ambient",A (LC)
same,XRPD Result,"[7]; solvent Heptane/EtOH (2:8), Ambient",Amorphous
same,XRPD Result,"[7]; solvent IPA, 60° C./4 d",Amorphous
same,XRPD Result,"[7]; solvent IPA/Acetone (1:1), Ambient",IS
same,XRPD Result,"[7]; solvent Water, 60° C./1 d",Amorphous
